Data published in patent publication US9403806B1, “Cognition enhancing compounds and compositions, methods of making, and methods of treating” (NeuroSolis, Inc., priority 2010, dated 2016).
Where a name gives a salt, the structure may show the parent alone. One block for each compound: values may come before it.

Tests used:
human FMO1 Supersomes = target: T1, human FMO1 Supersomes (Homo sapiens, UniProt Q01740); assay: Metabolism by flavin monoxygenase 1 (FMO1) Supersomes; type: in vitro ADME; settings: after 6 hours (FIG. 2)
T1 construct: purchased BD Biosciences 456241
T1 sequence (Q01740 1-532): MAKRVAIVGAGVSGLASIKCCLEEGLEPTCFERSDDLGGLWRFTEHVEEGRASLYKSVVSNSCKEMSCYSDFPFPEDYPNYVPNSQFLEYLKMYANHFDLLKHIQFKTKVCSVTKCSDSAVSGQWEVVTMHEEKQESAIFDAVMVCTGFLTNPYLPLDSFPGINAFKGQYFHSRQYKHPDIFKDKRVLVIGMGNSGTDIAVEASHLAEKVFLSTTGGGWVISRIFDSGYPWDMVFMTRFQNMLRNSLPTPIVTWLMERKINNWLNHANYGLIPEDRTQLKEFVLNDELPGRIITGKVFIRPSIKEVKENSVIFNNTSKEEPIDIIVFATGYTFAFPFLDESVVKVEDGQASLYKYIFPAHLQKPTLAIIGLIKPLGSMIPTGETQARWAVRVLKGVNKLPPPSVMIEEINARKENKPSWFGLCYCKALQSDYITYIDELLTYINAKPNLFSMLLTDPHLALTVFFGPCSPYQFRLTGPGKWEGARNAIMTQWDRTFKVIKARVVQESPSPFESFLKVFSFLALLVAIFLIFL
Method: […] Aliquots were removed every 10 minutes, and 1% formic acid was added to halt the reaction. Samples were centrifuged, filtered through 0.2 micron spinfilter and the amount of each compound in the supernatants was quantitated using LC/MS/MS.

[1] = target: T2, human muscarinic M3 receptors (Homo sapiens, UniProt P20309); assay: IP production in A9L cells with human M3 receptors (IPOne TR-FRET), Example 28; type: cell-based; settings: for huM3/A9L Smax: percentage of maximal stimulation by carbachol; for huM3/A9L ED50 relative to CCh*: potency relative to carbachol at its EC50, semi-quantitative
T2 construct: host or cells: A9L cells
Method in brief: (§1)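 A9L cells transfected with human M1 or M3 receptors, exposed to compound in medium with 10 mM LiCl and 10 mM HEPES (pH 7.4) for 60 min at 37 °C. IP in lysates measured by IPOne TR-FRET; efficacy expressed relative to full agonist (100%).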

[2] = Metabolites in serum and urine of dosed rats (LC-MS); type: in vivo; settings: rats, dosed orally
Method: Oxadiazoles disclosed herein as well as other oxadiazoles were investigated to determine the formation of metabolites. Animals were dosed, blood taken, serum prepared, serum proteins precipitated and ultrafiltrates prepared as described in Example 6. In separate experiments, urine was collected from rats for 16-24 hours after dosing, using standard metabolic cages. The urine container and collected urine were maintained at 4° C. Urine was lyophilized, taken back into water. The uftrafiltrate was prepared by adding formic acid to a final concentration of 1% to the urine samples, then filtered through a 0.2 um nylon membrane. The ultrafiltrate was subjected to LC-MS analysis. Instead of measuring the product ions in Q3, manual Q1 scans of the liquid chromatograph were undertaken, seeking parent ions of potential metabolites of the compounds. The criteria for identifying metabolites were as follows: (1) the ion should be present in the sera or urines of dosed rats, but not in sera or urines from non-dosed rats (2) the ion should be identifiable as a metabolic derivative of the dosed compound (e.g. loss of a functional chemical moiety, addition of a hydroxyl group or a glucuronic acid moiety, etc). Metabolites were determined not to be present if no compound meeting the above criteria could be detected in serum or urine.

[3] = target: T3, human muscarinic M1 receptors (Homo sapiens, UniProt P11229); assay: IP production in A9L cells with human M1 receptors (IPOne TR-FRET), Example 28; type: cell-based; settings: for huM1/A9L Smax: percentage of maximal stimulation by carbachol; for huM1/A9L ED50 relative to CCh*: potency relative to carbachol at its EC50, semi-quantitative
T3 construct: host or cells: A9L cells
T3 sequence (P11229 1-460): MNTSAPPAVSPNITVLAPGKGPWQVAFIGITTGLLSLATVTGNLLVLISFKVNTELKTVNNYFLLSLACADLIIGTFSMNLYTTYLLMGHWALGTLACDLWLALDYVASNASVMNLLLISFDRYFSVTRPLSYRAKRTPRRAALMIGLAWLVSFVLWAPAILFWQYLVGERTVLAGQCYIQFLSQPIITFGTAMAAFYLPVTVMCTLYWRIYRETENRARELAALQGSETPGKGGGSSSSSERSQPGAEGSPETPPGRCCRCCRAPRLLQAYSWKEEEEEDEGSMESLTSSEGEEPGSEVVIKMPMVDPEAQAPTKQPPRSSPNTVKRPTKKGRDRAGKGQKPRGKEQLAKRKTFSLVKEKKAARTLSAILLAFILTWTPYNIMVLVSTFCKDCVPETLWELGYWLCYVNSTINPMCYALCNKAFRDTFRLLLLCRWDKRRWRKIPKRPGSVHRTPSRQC
Method in brief: as §1

rats = assay: In vivo muscarinic effects in rats after oral dosing
From the text: In these respects it was essentially the same as compound 3.

[4] = Blood and brain concentrations (rats), oral gavage; type: in vivo, Long-Evans Hooded rats; settings: rats, oral dosing
Method: Long-Evans Hooded rats (Charles River: male, 250-350 g) were dosed with solutions of test compounds in PBS by oral gavage. At the desired time after dosing, the animals were anesthetized with isoflurane, and then euthanized by cervical dislocation. Blood was obtained by cardiac puncture, transferred to a 1.5 mL microcentrifuge tube containing 15U Heparin, and the plasma recovered after centrifugation. Brains were dissected, weighed, immediately chilled to 4° C., and homogenized using a PowerGen 125 homogenizer in five volumes of ice-cold 2% formic acid. Proteins were precipitated from plasma and brain homogenate with two and five volumes respectively of ice-cold 2% formic acid and clarified by centrifugation. The supernatant was ultra-filtered by centrifugation through a 3K MWCO spin column (Pall Life Sciences), following the manufacturer's instructions. The concentration of compound in the ultra-filtrate was subjected to reverse-phase liquid chromatography using a 150×2.1 mm Agilent C8 reverse-phase column on a Shimadzu Prominence LC, eluting the compounds with a gradient of 2% to 50% of acetonitrile+0.1% formic acid for compound MI-50,382, or an isocratic flow of 2% acetonitrile+0.1% formic acid for the rest of the compounds listed. The concentration of the compound in the column effluent was measured using an Applied Biosystems API-3200 triple quadrupole mass spectrometer equipped with an electrospray sample injection system. The counts of the characteristic parent and product ions of each test compound were converted to concentration units by comparison with a standard calibration curve.

[5] = tested on: pooled male human liver microsomes; assay: Metabolism by human liver microsomes, Example 33; type: in vitro ADME; settings: 6 hours incubation (FIGS. 4A, 4B)
Method: Compounds were incubated with pooled male human liver microsomes (BD Biosciences, #452172) and an NADP-regenerating system in a phosphate buffer (pH 7.4) for a total of 6 hours. Aliquots were removed every 2 hours, and 1% formic acid was added to halt the reaction. Samples were centrifuged, filtered through 0.2 micron spinfilter and the amount of each compound in the supernatants was quantitated using LC/MS/MS.

in vitro [6] = settings: PAMPA
in vitro [7] = type: in vitro ADME; settings: PAMPA, pH 7.4, PAMPA Permeability Coefficient (×10^6)
Method in brief: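 Compounds at 400 μM in 100 mM phosphate buffer pH 7.4 diffused through a filter pre-wetted with 20 mg/mL porcine brain polar lipid extract in dodecane into matching buffer, 24 h at room temperature. Donor, acceptor and stock samples were acidified with 1% TFA, quantified by LC/UV, and passive diffusion rates calculated from peak areas.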

rat M3 receptors = target: T4, rat M3 receptors (Rattus norvegicus, UniProt P08483); assay: PI turnover (inositol phosphate production) in M3-CHO cells; type: cell-based; settings: mean Smax relative to carbachol (100.0); CHO cells expressing rat M3
T4 construct: host or cells: CHO (M3-CHO)
Method: The medium was changed to 70 μL/well of inositol-free DMEM containing 2 mM glutamine, 10% FBS and 10 μCi/ml of [3H]-inositol (PE:cat # NET114A250UC), incubated overnight as above, then 100 μL of a solution of the test compound in HBSS containing 10 mM LiCl and 20 mM HEPES, pH 7.4 was added, incubation was continued for 60 min under the above conditions, and the test was stopped by removing the test compound and replacing with 100 μL of 50 mM formic acid in water at 4° C. […] The compounds in Table 1 are all dihydropyrimidine-oxadiazoles which vary only at the oxadiazole side chain.

[8] = tested on: A-beta 1-40 and A-beta 1-42; assay: A-beta in hippocampal microdialysate of transgenic mice; type: in vivo, Tg-2576 transgenic mice; settings: Tg-2576 mice, single dose (FIG. 14)
From the text: These mice have high concentrations of A-beta in their brain tissue, thought to be the cause of neuron death in Alzheimer's disease, and accumulate amyloid plaques, recapitulating one of the hallmark pathological features of Alzheimer's disease.

CD-I mice = assay: Apomorphine induced climbing model of psychosis; type: in vivo
Method: As described in Costall et. al. European Journal of Pharmacology 1978, 50, 39. individual CD-I mice, 1-2 months old, were placed in a cylindrical wire mesh cage (13.2 cm high×13.2 cm diameter) constructed of steel wire 1 mm thick spaced at 1.2 cm^2. Cylinders were placed in a standard OptiMICE mouse cage (29×32×9×29 cm and 14 cm high) with adequate wood chip bedding provided. Observations of climbing (defined as 3 or more paws of the ground) were carried out every 5 minutes at a duration of 1 minute for […]. Animals were injected subcutaneously under isoflurane anesthesia with test compounds, reference compounds, which included clozapine, haloperidol, olanzapine and xanomeline, or PBS as a control. This was followed 5 minutes later by 2 mg/kg apomorphine hydrochloride. All drugs were dissolved in PBS or a mixture of (by volume) 96% PBS and 4% hydroxypropyl-beta-cyclodextrin, and dosed at a rate of 5 ml per kilogram of body weight. Following injections, animals were replaced in the mesh cages and observed for climbing (defined as 3 or more paws off the ground) every 5 minutes for 1 minute for 60 minutes after dosing.

[9] = tested on: hippocampal inositol phosphate; assay: In vivo tissue inositol phosphate signaling pathway activation, hippocampus; parameters: species or system Long Evans Hooded rats; settings: normal rats, dose-dependent 0.03 mg/kg to at least 3 mg/kg (FIG. 10A)
Method: Experimental compounds or drug substances were administered using standard techniques to Long Evans Hooded rats weighing 225 to 350 grams, and which had been pretreated with a subcutaneous injection of lithium chloride at a suitable dose between 3 and 10 mmoles per kg. At suitable times the animals were briefly anesthetized using 5% isoflurane and euthanized by decapitation. The brains and submaxillary salivary glands were rapidly dissected out, and the hippocampuses were dissected from the brains. The dissected tissues were homogenized in a suitable volume of ice-cold phosphate-buffered saline containing 10 mM lithium chloride, pH7.4, using a tissue homogenizer, and used immediately or frozen in aliquots at −80 deg C. for future use. The concentration of inositol-1-phosphate was determined in the homogenates using the IPOne TR-FRET assay (CisBio cat no 621PAPEB), following the manufacturer's instruction

anesthetized normal rats = assay: In vivo measurement of salivation; parameters: species or system Long Evans Hooded rats; settings: anesthetized normal rats, dose-dependent between about 0.1 mg/kg and 1 mg/kg (FIG. 11)
Method: Suitable doses of test compounds or drug substances were administered using standard techniques to Long Evans Hooded rats weighing 225 to 350 grams, or CD-1 mice weighing 30 to 50 grams, which had been anesthetized using 2-3.5%% of isoflurane in oxygen. The animals were placed slightly head-down on an inclined, heated ramp. Rectal temperature was monitored using a thermocouple and the temperature of the heating pad was adjusted manually to maintain normal body temperature. Saliva was collected from the mouth by absorption onto pre-weighed slips of filter paper. The filter paper was changed periodically and the amount of saliva was measured by weighing the filter paper slips

[10] = mice, sc, apomorphine 2 mg/kg (FIG. 1)

T2 sequence (P20309 whole entry): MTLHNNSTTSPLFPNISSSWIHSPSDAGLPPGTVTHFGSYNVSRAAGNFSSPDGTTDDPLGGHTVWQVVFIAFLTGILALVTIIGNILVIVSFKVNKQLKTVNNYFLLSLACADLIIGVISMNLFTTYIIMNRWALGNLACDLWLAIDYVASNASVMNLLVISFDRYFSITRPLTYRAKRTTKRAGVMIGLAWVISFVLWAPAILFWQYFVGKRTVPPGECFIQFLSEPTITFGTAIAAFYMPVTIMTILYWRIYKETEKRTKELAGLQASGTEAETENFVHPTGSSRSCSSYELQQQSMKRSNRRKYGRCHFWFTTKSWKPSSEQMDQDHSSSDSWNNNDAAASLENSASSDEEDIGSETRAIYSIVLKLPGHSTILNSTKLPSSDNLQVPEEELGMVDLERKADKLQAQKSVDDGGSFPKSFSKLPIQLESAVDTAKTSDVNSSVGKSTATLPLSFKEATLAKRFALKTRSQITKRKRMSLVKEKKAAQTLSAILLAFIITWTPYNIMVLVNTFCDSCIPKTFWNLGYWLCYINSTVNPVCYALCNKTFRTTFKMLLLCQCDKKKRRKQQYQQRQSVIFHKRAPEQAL
T4 sequence (P08483 whole entry): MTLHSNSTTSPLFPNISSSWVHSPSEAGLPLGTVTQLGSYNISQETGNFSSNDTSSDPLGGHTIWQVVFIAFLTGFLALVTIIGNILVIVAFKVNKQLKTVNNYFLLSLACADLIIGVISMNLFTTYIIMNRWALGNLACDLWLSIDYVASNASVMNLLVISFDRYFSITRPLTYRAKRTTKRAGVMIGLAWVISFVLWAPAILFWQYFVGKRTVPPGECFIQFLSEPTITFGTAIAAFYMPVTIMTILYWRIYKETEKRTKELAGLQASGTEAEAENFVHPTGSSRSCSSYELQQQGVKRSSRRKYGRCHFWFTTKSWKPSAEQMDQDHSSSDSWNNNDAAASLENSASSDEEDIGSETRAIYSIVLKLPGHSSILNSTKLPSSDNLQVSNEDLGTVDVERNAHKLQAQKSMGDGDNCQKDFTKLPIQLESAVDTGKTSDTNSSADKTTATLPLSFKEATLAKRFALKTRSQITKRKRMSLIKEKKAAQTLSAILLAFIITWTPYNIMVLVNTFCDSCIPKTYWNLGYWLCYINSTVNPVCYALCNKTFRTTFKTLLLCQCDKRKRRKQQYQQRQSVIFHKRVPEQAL

Compound: [2H]C([2H])([2H])c1noc(C2CCCNC2)n1 (stereo not drawn) [Compound 7, 3-D3-Methyl-5-(piperidin-3-yl)-1,2,4-oxadiazole]
extent of metabolism in FMO Supersomes (in words) (human FMO1 Supersomes): less than half metabolized
huM3/A9L Smax [1]: 60%
huM3/A9L ED50 relative to CCh* [1]: +/− (+/− potency 0.5-2x CCh)
metabolites identified in plasma or urine [2]: No metabolites were identified
huM1/A9L Smax [3]: 116%
huM1/A9L ED50 relative to CCh* [3]: + (+ potency 2-10x CCh)
muscarinic agonist activity in vivo (rats; in vivo): demonstrated muscarinic agonist activity in vivo
penetration into the brain after oral dosing [4]: penetrated into the brain
plasma concentrations relative to compound 1 after oral dosing ([4]; versus compound 1): approximately 2.4 times
metabolism in human liver microsomes (in words) [5]: metabolized significantly less in human liver microsomes than in rat liver microsomes

Compound: Clc1cccc(Cl)c1N=C1NCCN1 [Clonidine, reference compound]
Papp (in vitro [6]): 7.95 ×10⁻⁶ cm/s
Papp (in vitro [7]): 7.66 ×10⁻⁶ cm/s

M3/CHO PI turnover Relative Mean Smax (rat M3 receptors): 92.6
Compound: [2H]C([2H])([2H])c1noc(C2CN=CNC2)n1 (stereo not drawn) [Compound 4c, 3-(d3-methyl)-5-(1,4,5,6-tetrahydropyrimidin-5-yl)-1,2,4-oxadiazole hydrochloride]

Compound: 3-Methyl-5-(piperidin-3-yl)-1,2,4-oxadiazole [Compound 3]
salivary flow after oral dosing (rats; rats, dosed orally): produced copious salivary flow

Compound: Cc1noc(C2CCCNC2)n1 (racemic) [Compound 3, 3-Methyl-5-(piperidin-3-yl)-1,2,4-oxadiazole]
extent of metabolism in FMO Supersomes (in words) (human FMO1 Supersomes): less than half metabolized
huM3/A9L Smax [1]: 54%
huM3/A9L ED50 relative to CCh* [1]: +/− (+/− potency 0.5-2x CCh)
Papp (in vitro [6]): 2.56 ×10⁻⁶ cm/s
reduction of the concentration of A-beta 1-40 in hippocampal microdialysate [8]: approximately 40%
reduction of the concentration of A-beta 1-42 in hippocampal microdialysate [8]: approximately 40%
huM1/A9L Smax [3]: 108%
huM1/A9L ED50 relative to CCh* [3]: + (+ potency 2-10x CCh)
Climbing Mean (CD-I mice; Cmpd 3 0.1 mg/kg + APO 2 mg/kg): 8.9 s
Climbing Mean (CD-I mice; Cmpd 3 0.1 mg/kg + APO + N-Methyl Scopolamine 0.3 mg/kg): 12.3 s
Climbing Mean (CD-I mice; Cmpd 3 0.1 mg/kg + APO + scopolamine 0.3 mg/kg): 47.0 s
activity in the apomorphine induced climbing model (CD-I mice; [10]): highly active and highly potent
potency in inhibiting climbing compared with haloperidol (CD-I mice; [10]): equipotent to haloperidol
hippocampal IP response [9]: causes an increase in the hippocampal IP response
salivation (anesthetized normal rats): causes salivation
metabolism in human liver microsomes (in words) [5]: metabolized significantly less in human liver microsomes than in rat liver microsomes
